The term IC50 denotes the concentration needed to halve the response being measured. The low end stands for inhibition by little substance, the high end for a need for much substance.

One series deals with human keratinocytes. As to the kind of experiment: Keratinocyte cell viability / cytotoxicity in Example 12. The settings on record: extended treatment. It counts as cell-based.
Series [1] concerns MDA-kb2 breast cancer cell. As to the kind of experiment: MDA-kb2 cell viability in Example 13. It counts as cell-based.
A short description of a further series: in vitro. The settings on record: human.
Series [2] can be described thus: Human Skin Penetration Assays (Franz-cell, HTS station). It counts as in vitro ADME. The settings on record: 8 hours of exposure. How it is done:
To examine the penetration ability of SPG-003 formulation, two different assays were conducted. The SPG-003 formulation was prepared by adding SPG-003 (final concentration 1.0% by weight) to a mixture comprising 30% denatured alcohol. 49% IPM, 20% Transcutol and sonicaing this mixture until the compound was dissolved.
Human cadaver skin tissue was purchased from a tissue bank in the U.S. Two lots of the dermatomed skin tissue were used. Donor demographics: tissue 08033 (average thickness: 397 μm): […], […], […], and anatomical site=abdomen; tissue 08696 (average thickness; 1,040 μm): […], […], […], and anatomical site=abdomen. The thickness was measured using a digital snap gage. Duplicate for each donor (N=2). The tissue was received in dry ice packaging. It was stored at −20° C. until use.
After passing initial visual inspection, barrier integrity of the skin tissue was evaluated using transepidermal electrical resistance measurement (TEER measurement). […] Prior to the skin absorption and penetration study, electrical resistance value for each lot of human skin tissue was evaluated. […] Transepidermal electrical resistance value (TEER measurement, Z value) was measured. […] It was determined that the threshold TEER value was 6.0 KOhms for donor 08033 and 10 KOhms for donor 08696. […]
The data collection time point was 8 hours. […] The extracts were collected and ready for analysis. […]

Take `CC12CCC(=O)C=C1C[C@@H](SC(=O)CC13CC4CC(CC(C4)C1)C3)C1C2CCC2(C)C1CC[C@@]21CCC(=O)O1` (stereo partly drawn) [SPG-003]: the “cell cytotoxicity (in words)” value with human keratinocytes is given as “minimal”. The Cell Viability in series [1] (MDA-kb2, 6 μM) is listed as 80%. The same compound had a Cell Viability in series [1] (MDA-kb2, 10 μM) of 50%. In addition, in “in vitro”, the IC50 at 72 h was ~50 µM. For the same compound, in series [2], the “skin penetration (in words)” value is on record as “limited amount”; the “skin retention in epidermis and dermis (in words)” value is on record as “good amount”.

The values above are taken from patent US12319681B2, “Tripartite androgen receptor eliminators, methods and uses thereof” (SPG Therapeutics, Inc., priority 2017, dated 2025).
